Values joined by “and” are separate entries in the source; they are usually repeats but may differ in a detail not shown here. Identical values can stand only once.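 Values below derive from 48-hour exposures of cells grown in 96-well plates, with endpoints linearly interpolated between the two concentrations bracketing the appropriate inhibition level. Abbreviation: GI50, concentration required for 50% inhibition of growth. TGI: total growth inhibition.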
Tests used:
Test in all cases: growth of human tumour cells (NCI), 48 h
OVCAR-8 ovarian = system: OVCAR-8 ovarian
HOP-62 NSCLC = system: HOP-62 NSCLC
SK-MEL-5 melanoma = system: SK-MEL-5 melanoma
ACHN renal = system: ACHN renal
UACC-257 melanoma = system: UACC-257 melanoma
OVCAR-5 ovarian = system: OVCAR-5 ovarian
HS 578T breast = system: HS 578T breast
NCI-H23 lung = system: NCI-H23 lung
786-0 renal = system: 786-0 renal
NCI-H522 lung = system: NCI-H522 lung

Compound | TGI (OVCAR-8 ovarian) | TGI (HOP-62 NSCLC) | TGI (SK-MEL-5 melanoma) | TGI (ACHN renal) | TGI (UACC-257 melanoma) | TGI (OVCAR-5 ovarian) | TGI (HS 578T breast) [µM] | TGI (NCI-H23 lung) | TGI (786-0 renal) | TGI (NCI-H522 lung) | GI50 (HOP-62 NSCLC) | GI50 (ACHN renal) | GI50 (UACC-257 melanoma) | GI50 (OVCAR-5 ovarian) | GI50 (NCI-H23 lung)
COc1cc(-c2cc(=O)c3cc4c(cc3[nH]2)OCO4)cc(OC)c1O | > 10 µM | > 10 µM | > 10 µM | > 10 µM | > 10 µM | > 10 µM | > 10 | > 10 µM | > 10 µM | > 10 µM |  |  |  |  | 
CC(=O)OCC1OC(OC(C)(C)CC/C=C(\C)[C@@H]2C/C=C(\C)CC/C=C(\C)CC2)C(O)C(O)C1OC(C)=O (stereo not given in full) | 82.3 µM and 43.5 µM | > 100 µM and 30.4 µM | > 83.7 µM and 34.6 µM | > 100 µM and 26.7 µM | > 100 µM and 38.5 µM | > 100 µM and 34.1 µM | 30.5 | > 100 µM and 25.3 µM | 96.8 µM and 58.8 µM | 28.8 µM and 37.4 µM | > 82.7 µM and 16.8 µM | > 65.1 µM and 13.8 µM | 99.3 µM and 19.1 µM | > 100 µM and 16.6 µM | 46.2 µM and 12.7 µM
COc1cccc2c(N)c3cccc(C(=O)NCCN(C)C)c3nc12 | 0.594 µM | 0.833 µM | 2.08 µM | 2.03 µM | 3.41 µM | 3.4 µM | 0.571 | 1.02 µM | 1.82 µM | 0.149 µM |  |  |  |  | 
Cc1nc2c(sc(=S)n2-c2ccccc2)c2nc3ncccc3n12 | > 100 µM | 90.3 µM | > 100 µM | > 100 µM | > 100 µM | > 100 µM | > 100 | > 100 µM | > 100 µM | > 100 µM |  |  |  |  | 
Brc1ccc(CCNCCN2CCCCC2)cc1 | 30.5 µM | 34.9 µM | 20.6 µM | 42.6 µM | 28.3 µM | 36.2 µM | 38.1 | 37 µM | 27.5 µM | 30.3 µM |  |  |  |  | 
CC(C)(N=NC(C)(C)C(=O)NCCO)C(=O)NCCO | > 100 µM | > 100 µM | > 100 µM | > 100 µM | > 100 µM | > 100 µM | > 100 | > 100 µM | > 100 µM | > 100 µM |  |  |  |  | 
Cc1nc2cccc([N+](=O)[O-])c2c(NCCCN(C)C)c1C | > 54.7 µM | > 69.2 µM | > 100 µM | > 100 µM | 57.3 µM | 60.2 µM | > 100 | > 31.6 µM | > 100 µM | 40.6 µM |  |  |  |  | 
CC(C)=CCOC(=O)C(C)=[N+]=[N-] | > 100 µM | > 100 µM | > 100 µM | > 100 µM | > 100 µM | > 100 µM | > 100 | > 100 µM | > 100 µM | > 100 µM |  |  |  |  | 
CN(C)CCCOc1nc2c(c(=O)n(C)c(=O)n2C)n1C (tested in a mixture with another compound) | > 100 µM | > 100 µM | 48.6 µM | 68.8 µM | > 100 µM | > 100 µM | > 100 | 97.6 µM | > 100 µM | > 100 µM |  |  |  |  | 
O=C(O)c1cc2c(cc1CC(Cc1ccc3c(c1)CCC3)C(=O)O)CCC2 (stereo not given) | > 100 µM | > 100 µM | > 100 µM | > 100 µM | > 100 µM | > 100 µM | > 100 | > 100 µM | > 100 µM | > 100 µM |  |  |  |  | 
CN(CCC#N)c1ccc(/C=C2\SC(=S)NC2=O)cc1 | > 100 µM | > 100 µM | > 100 µM | > 100 µM | > 100 µM | > 100 µM | > 100 | > 100 µM | > 100 µM | > 100 µM |  |  |  |  | 
O=C1/C(=C/c2ccccc2)N=C(c2ccccc2)N1n1c(-c2ccccc2)nc2ccccc2c1=O | > 100 µM | > 100 µM | > 100 µM | > 100 µM | > 100 µM | > 100 µM | > 100 | > 100 µM | > 100 µM | > 100 µM |  |  |  |  | 
OC1C2[C@@H](O)CCCN2C[C@@H](O)[C@H]1O (stereo not given in full) | > 100 µM | > 100 µM | > 100 µM | > 100 µM | > 100 µM | > 100 µM | > 100 | > 100 µM | > 100 µM | > 100 µM |  |  |  |  | 
CN(C)CCCOC(=O)C(c1ccccc1)C1(O)CCSCC1 (stereo not given) | > 100 µM | > 100 µM | > 100 µM | > 100 µM | > 100 µM | > 100 µM | > 100 | > 100 µM | > 100 µM | > 100 µM |  |  |  |  | 

Source: PubChem BioAssay (NCI)
